According to paper PMC5515508, “Benzene Probes in Molecular Dynamics Simulations Reveal Novel Binding Sites for Ligand Design” (The Journal of Physical Chemistry Letters, 2016):
Bridge positions count the residues as written; N and C are the ends. Square brackets hold non-standard residues; d marks the D form. Peptide text beside a SMILES is read from it. R5 = C=CCCC[C@@](C)(N)C(=O)O

Molecular target: T1, MDM2 (1-125) (Homo sapiens, UniProt Q00987)
T1 construct: cleaved MDM2 (1-125) was purified to ~90% purity; GST (N, cleaved yes); made in house; host or cells: Escherichia coli BL21(DE3)
T1 sequence (Q00987 1-125): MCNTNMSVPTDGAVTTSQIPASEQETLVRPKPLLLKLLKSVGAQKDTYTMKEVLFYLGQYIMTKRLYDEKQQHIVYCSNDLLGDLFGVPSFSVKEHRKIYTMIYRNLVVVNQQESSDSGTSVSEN
Assay: Competitive fluorescence polarization titration against FAM-labeled 12/1 peptide
Type: binding
Conditions: read-out: Dissociation constant (Kd)
Description: [P] is the protein concentration (MDM2), [L] is the labeled peptide concentration, r is the
Apparent Kd values were determined for a variety of molecules via competitive fluorescence […]
triplicate. Curve-fitting was carried out using Prism 4.0 (GraphPad).

Structure (SMILES)	Kd [nM]
CC(=O)N[C@H](C(=O)N[C@@H](CO)C(=O)N[C@@H](Cc1ccccc1)C(=O)N[C@]1(C)CCCC=CCCC[C@](C)(C(=O)N[C@@H](CC(C)C)C(=O)N[C@@H](CC(C)C)C(=O)N2CCC[C@H]2C(=O)N[C@@H](CCC(=O)O)C(=O)N[C@@H](CC(N)=O)C(N)=O)NC(=O)[C@H](Cc2c[nH]c3ccccc23)NC(=O)[C@H](Cc2ccc(O)cc2)NC(=O)[C@H](CCC(=O)O)NC1=O)[C@@H](C)O [YS-3] (Ac-TSF[R5]EYW[R5]LLPEN-NH2; staple 4-8)	36.1 ± 2.9
CC(=O)N[C@H](C(=O)N[C@@H](CO)C(=O)N[C@@H](Cc1ccccc1)C(=O)N[C@]1(C)CCCC=CCCC[C@](C)(C(=O)N[C@@H](CC(C)C)C(=O)N[C@@H](CC(C)C)C(=O)N[C@@H](CO)C(=O)N[C@@H](CCC(=O)O)C(=O)N[C@@H](CC(N)=O)C(=O)N[C@@H](Cc2ccccc2)C(N)=O)NC(=O)[C@H](Cc2c[nH]c3ccccc23)NC(=O)[C@H](Cc2ccc(O)cc2)NC(=O)[C@H](CCC(=O)O)NC1=O)[C@@H](C)O [YS-5] (Ac-TSF[R5]EYW[R5]LLSENF-NH2; staple 4-8)	11.6 ± 0.9
CC(=O)N[C@H](C(=O)N[C@@H](CO)C(=O)N[C@@H](Cc1ccccc1)C(=O)N[C@]1(C)CCCC=CCCC[C@](C)(C(=O)N[C@@H](CC(C)C)C(=O)N[C@@H](CC(C)C)C(=O)N[C@@H](CO)C(=O)N[C@@H](CCC(=O)O)C(=O)N[C@@H](CC(N)=O)C(=O)N[C@@H](Cc2ccc(O)cc2)C(N)=O)NC(=O)[C@H](Cc2c[nH]c3ccccc23)NC(=O)[C@H](Cc2ccc(O)cc2)NC(=O)[C@H](CCC(=O)O)NC1=O)[C@@H](C)O [YS-6] (Ac-TSF[R5]EYW[R5]LLSENY-NH2; staple 4-8)	8.8 ± 0.6

Results, then the compound that gave them:

Kd [nM]	Structure (SMILES)
9.9 ± 1.5	CC(=O)N[C@H](C(=O)N[C@@H](CO)C(=O)N[C@@H](Cc1ccccc1)C(=O)N[C@]1(C)CCCC=CCCC[C@](C)(C(=O)N[C@@H](CC(C)C)C(=O)N[C@@H](CC(C)C)C(=O)N2CCC[C@H]2C(=O)N[C@@H](CCC(=O)O)C(=O)N[C@@H](CC(N)=O)C(=O)N[C@@H](Cc2ccccc2)C(N)=O)NC(=O)[C@H](Cc2c[nH]c3ccccc23)NC(=O)[C@H](Cc2ccc(O)cc2)NC(=O)[C@H](CCC(=O)O)NC1=O)[C@@H](C)O [YS-1] (Ac-TSF[R5]EYW[R5]LLPENF-NH2; staple 4-8)
7.4 ± 1.5	CC(=O)N[C@H](C(=O)N[C@@H](CO)C(=O)N[C@@H](Cc1ccccc1)C(=O)N[C@]1(C)CCCC=CCCC[C@](C)(C(=O)N[C@@H](CC(C)C)C(=O)N[C@@H](CC(C)C)C(=O)N2CCC[C@H]2C(=O)N[C@@H](CCC(=O)O)C(=O)N[C@@H](CC(N)=O)C(=O)N[C@@H](Cc2ccc(O)cc2)C(N)=O)NC(=O)[C@H](Cc2c[nH]c3ccccc23)NC(=O)[C@H](Cc2ccc(O)cc2)NC(=O)[C@H](CCC(=O)O)NC1=O)[C@@H](C)O [YS-2] (Ac-TSF[R5]EYW[R5]LLPENY-NH2; staple 4-8)
27.7 ± 1.3	CC(=O)N[C@H](C(=O)N[C@@H](CO)C(=O)N[C@@H](Cc1ccccc1)C(=O)N[C@]1(C)CCCC=CCCC[C@](C)(C(=O)N[C@@H](CC(C)C)C(=O)N[C@@H](CC(C)C)C(=O)N2CCC[C@H]2C(=O)N[C@@H](CCC(=O)O)C(=O)N[C@@H](CC(N)=O)C(=O)N[C@@H](C)C(N)=O)NC(=O)[C@H](Cc2c[nH]c3ccccc23)NC(=O)[C@H](Cc2ccc(O)cc2)NC(=O)[C@H](CCC(=O)O)NC1=O)[C@@H](C)O [YS-4] (Ac-TSF[R5]EYW[R5]LLPENA-NH2; staple 4-8)
